Key:
B16 melanoma cells = experiment: Cell viability of B16 melanoma cells (DM1, cD31N-DM1); type: cell-based; conditions: 0.0001 nm to 1000 nm, after 3 days
Description: (§1) Cancer cell lines were acquired from ATCC and cultured according to well known methods in the art. Treatment with cytotoxic agents, antibodies, or ADCs refers to the addition of the cytotoxic agent, antibody or ADC (i.e., DM1 or cD31N-DM1, etc.) to the culture media for a set duration.

[1] = system: Capan-1 pancreatic cancer cells; experiment: Cell viability of Capan-1 cells (DM1, cD31N-DM1); type: cell-based; conditions: after 6 days
Description: as §1

[2] = system: DAYO medulloblastoma cells; experiment: Cell viability of DAYO cells (DM1, cD31N-DM1); type: cell-based; conditions: after 3 days
Description: as §1

GL261 glioma cells = experiment: Cell viability of GL261 cells (DM1, cD31N-DM1); type: cell-based; conditions: after 6 days
Description: as §1

[3] = system: WT DLD-1 colorectal adenocarcinoma cells; experiment: Cell viability assay in WT DLD-1 cells; type: cell-based, human; conditions: after 6 days
Description: as §1
(§2) BRCA2 deficient (BRCA2′) cells are more sensitive to DM1 because BRCA2 participates in DNA double-stranded break (DSB) repair.
The viability assay protocol is set forth in Example 3.

[4] = system: BRCA2^−/− DLD-1 colorectal adenocarcinoma cells; experiment: Cell viability assay in BRCA2-/- DLD-1 cells; type: cell-based, human; conditions: BRCA2-/- DLD-1 cells, after 6 days
Description: as §1, §2

[5] = system: PEO-4 (WT) ovarian adenocarcinoma cells; experiment: Cell viability of PEO-4 cells; type: cell-based; conditions: WT PEO-4 cells, after 5 days
Description: as §1
(§3) The effects of longer-term treatment with SN38 and cD31N-SN38 on PEO-4 (WT) and PEO-1 (BRCA2^−/−) ovarian cancer cells were investigated.

[6] = system: PEO-1 (BRCA2^−/−) ovarian adenocarcinoma cells; experiment: Cell viability of PEO-1 cells; type: cell-based; conditions: BRCA2-/- PEO-1 cells, after 5 days
Description: as §1, §3

COc1cc2cc(c1Cl)N(C)C(=O)C[C@H](OC(=O)[C@H](C)N(C)C(=O)CCS)[C@]1(C)O[C@H]1[C@H](C)[C@@H]1C[C@@](O)(NC(=O)O1)[C@H](OC)/C=C/C=C(\C)C2 [DM1, N(2′)-deacetyl-N(2′)-(3-mercapto-1-oxopropyl)-maytansine]
cytotoxicity (cell viability) (B16 melanoma cells): cytotoxic to B16 melanoma cells in a concentration-dependent manner | cytotoxicity (cell viability) [1]: cytotoxic to the Capan-1 pancreatic cancer cells in a concentration-dependent manner | cytotoxicity (cell viability) [2]: cytotoxic to the DAYO medulloblastoma cells in a concentration-dependent manner | cytotoxicity (cell viability) (GL261 glioma cells): cytotoxic to the GL261 glioma cells in a concentration-dependent manner | cytotoxicity (cell viability) [3]: cytotoxic | cytotoxicity (cell viability) [4]: cytotoxic | cytotoxicity (cell viability) [5]: cytotoxic | cytotoxicity (cell viability) [6]: cytotoxic

Reference: patent US20260207769A1, “ANTIBODY DRUG CONJUGATES” (YALE UNIVERSITY, priority 2022, published 2026)
